Data reported in patent US20240174638A1, “HETEROARYL DERIVATIVES AS APELIN RECEPTOR AGONISTS” (RESEARCH TRIANGLE INSTITUTE, priority 2021, published 2024).

Assays:
[1] = tested on: Human plasma protein; details: 6 h, 1 μM
[2] = tested on: Mouse plasma protein; details: 6 h, 1 μM
[3] = tested on: Rat plasma protein; details: 6 h, 1 μM
[4] = in vitro; details: human
[5] = in vitro; details: mouse, pH 7.4
[6] = in vitro; details: rat, pH 7.4
[7] = tested on: Salmonella typhimurium (TA98, TA100, TA1535 and TA1537)
[8] = tested on: BLEO-induced lung fibrosis in male C57BL/6 mice; experiment: Chronic (21-day) bleomycin-induced lung fibrosis model, prophylactic (Px) and therapeutic (Tx) arms; type: in vivo, mouse
[9] = relative to Vehicle-treated BLEO-instilled controls

SMILES	% Protein Bound Rep 1 [1] [%]	% Protein Bound Rep 2 [1] [%]	% Protein Bound Rep 3 [1] [%]	Buffer Concentration Rep 1 [1] [nM]	Buffer Concentration Rep 2 [1] [nM]	Buffer Concentration Rep 3 [1] [nM]	Plasma Concentration Rep 1 [1] [nM]	Plasma Concentration Rep 2 [1] [nM]	Plasma Concentration Rep 3 [1] [nM]	% Protein Bound Rep 1 [2] [%]	% Protein Bound Rep 2 [2] [%]	% Protein Bound Rep 3 [2] [%]	Buffer Concentration Rep 1 [2] [nM]	Buffer Concentration Rep 2 [2] [nM]	Buffer Concentration Rep 3 [2] [nM]	Mean % Protein Bound [2] [%]	Plasma Concentration Rep 2 [2] [nM]	Plasma Concentration Rep 3 [2] [nM]	% Protein Bound Rep 1 [3] [%]	% Protein Bound Rep 2 [3] [%]	also measured
CCCC(=O)Nc1ccc(OCC(O)CNC(C)C)c(C(C)=O)c1 (stereo not drawn) [Acebutolol]	−12.84	−22.81	−2.59	544.3	539.8	494.8	482.3	439.6	482.3	18.36	23.23	20.05	274.4	258.1	268.1	20.50	336.2	335.3	−11.35	−26.18	Plasma Concentration Rep 1 [2]: 336.0 nM; % Protein Bound Rep 3 [3]: −33.75%; Buffer Concentration Rep 1 [3]: 552.8 nM; Buffer Concentration Rep 2 [3]: 571.3 nM; Buffer Concentration Rep 3 [3]: 639.1 nM; Plasma Concentration Rep 1 [3]: 455.6 nM; Plasma Concentration Rep 2 [3]: 452.8 nM; Plasma Concentration Rep 3 [3]: 477.8 nM; recovery at 6 h, 1 μM [4]: 99.4%; recovery at 6 h, 1 μM [5]: 60.3%; recovery at 6 h, 1 μM [6]: 105%
COc1ccc2nc3cc(Cl)ccc3c(NCCCNCCCl)c2c1 [ICR-191]																					Cytotoxicity Code [7]: N; Mean Revertant Colony Counts ([7]; Salmonella typhimurium): 66.00; Ratio ([7]; Salmonella typhimurium): 28.33
Cc1ccc(=O)n(-c2ccccc2)c1 [PIRF, Pirfenidone, reference compound]																					21-day survival rate ([8]; BLEO-instilled mice, Px PIRF 200 mg/kg/day p.o. BID): 94%; ΔBW ([8]; D0-D21, relative to Vehicle-treated BLEO-instilled controls): Neither EXAMPLE 22 nor PIRF affected; composite Collagen Volume Fraction (CVF) ([8]; Px PIRF 200 mg/kg/day, Vehicle 2.63±0.24%): 1.87±0.19%; composite Tissue Collagen Fraction (TCF) ([8]; Px PIRF 200 mg/kg/day, Vehicle 5.58±0.34%): 4.43±0.34%; LW indexed to tibia length (LW:TL) [8, 9]: Neither EXAMPLE 22 nor PIRF affected; endpoint lung OH-P content [8, 9]: Neither EXAMPLE 22 nor PIRF affected; endpoint lung weight (LW) [8, 9]: Neither EXAMPLE 22 nor PIRF affected; final BW [8, 9]: Neither EXAMPLE 22 nor PIRF affected; serial BW [8, 9]: Neither EXAMPLE 22 nor PIRF affected
CC(=O)CC(c1ccccc1)c1c(O)c2ccccc2oc1=O (stereo not drawn) [Warfarin]	97.59	98.26	98.01	21.6	17.3	18.4	897.5	993.2	926.2	89.13	90.27	91.02	91.8	89.5	82.3	90.10	919.8	917.0	99.46	99.25	Mean % Protein Bound [1]: 97.96%; % Protein Bound Rep 3 [3]: 97.82%; Buffer Concentration Rep 1 [3]: 4.4 nM; Buffer Concentration Rep 2 [3]: 5.9 nM; Buffer Concentration Rep 3 [3]: 17.7 nM; Mean % Protein Bound [3]: 98.80%; recovery at 6 h, 1 μM [4]: 95.4%; recovery at 6 h, 1 μM [5]: 98.2%; recovery at 6 h, 1 μM [6]: 81.4%
